Measured values from US6440996B1, “Monomeric and dimeric heterocycles, and therapeutic uses thereof” (priority 1998, dated 2002).

Biological target: striatal dopamine transporter (Macaca mulatta, UniProt Q7JHP9)
Experiment: PET evaluation of 11C-labeled isomers
Experimental: The products were purified by HPLC on a C-18 cartridge eluted with MeOH: phosphate/triethylamine buffer, pH 7.2 (60:40).
After passage through a 0.22 μm filter, the sterile products were administered to three Rhesus monkeys and dynamic PET images were acquired over 90 minutes.

Chain of striatal dopamine transporter (Q7JHP9 1-620): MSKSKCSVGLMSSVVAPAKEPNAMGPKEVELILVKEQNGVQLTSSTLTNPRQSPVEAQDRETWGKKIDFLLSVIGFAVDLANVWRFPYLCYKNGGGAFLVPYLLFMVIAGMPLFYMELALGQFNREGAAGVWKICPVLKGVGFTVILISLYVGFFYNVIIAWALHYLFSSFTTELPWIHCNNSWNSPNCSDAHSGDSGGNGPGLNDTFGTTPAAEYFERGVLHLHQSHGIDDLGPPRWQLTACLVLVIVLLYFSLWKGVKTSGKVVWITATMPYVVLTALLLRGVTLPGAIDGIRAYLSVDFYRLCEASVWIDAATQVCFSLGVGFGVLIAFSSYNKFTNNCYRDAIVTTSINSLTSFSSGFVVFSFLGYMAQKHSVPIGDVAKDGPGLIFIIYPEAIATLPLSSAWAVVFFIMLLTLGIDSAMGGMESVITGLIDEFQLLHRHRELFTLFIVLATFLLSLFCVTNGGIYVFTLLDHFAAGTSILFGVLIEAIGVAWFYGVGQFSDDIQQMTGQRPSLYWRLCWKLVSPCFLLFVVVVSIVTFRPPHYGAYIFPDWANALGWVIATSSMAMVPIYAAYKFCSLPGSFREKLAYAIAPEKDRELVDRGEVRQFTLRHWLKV

COC(=O)C1CN(C)CCC1c1ccc(Cl)cc1 (stereo not drawn) [trans isomers, 4-(4-chlorophenyl)-3-carbomethoxy-N-methylpiperidine]
striatal activity after unlabeled CFT (CFT given 60 minutes after injection): selective decrease in the striatal activity

COC(=O)C1CN(C)CCC1c1ccc(Cl)cc1 (single isomer, unassigned; isomer 4) [cis isomer, 4-(4-chlorophenyl)-3-carbomethoxy-N-methylpiperidine]
brain accumulation of 11C-labeled tracer (PET) (dynamic PET over 90 minutes): greater nonspecific accumulation in the cortex
